Assay results: PMC10010340, “The Wnt Pathway Inhibitor RXC004 Blocks Tumor Growth and Reverses Immune Evasion in Wnt Ligand–dependent Cancer Models” (Cancer Research Communications, 2022)

Experiments:
[1] = biological target: T1, Porcupine (Homo sapiens, UniProt Q9H237); assay: Wnt palmitoylation assay (GFP-Wnt1-Fc in HEK293T cells); assay type: cell-based; settings: 100 nmol/L; GFP-Wnt1-Fc in HEK293T cells with alkyne palmitate
T1 construct: HEK293T cells were transfected with GFP-Wnt1-Fc constructs; endogenous in cells; host or cells: HEK293T
Description: Palmitoylation of Wnt was performed by the Burris group, under a fee-for-service agreement, and was detected as described in Galli and colleagues ([16]). Briefly, HEK293T cells were transfected with GFP-Wnt1-Fc constructs, followed by overnight incubation with alkyne palmitate (Alk-C16) in the presence of DMSO or 100 nmol/L RXC004. Cells were lysed and A/G agarose beads used to pull down GFP-Wnt1-Fc, which was then subjected to click chemistry to covalently attach biotin azide to any attached alkyne palmitate. Following SDS-PAGE and Western blotting, palmitoylation of Wnt was detected using Streptavidin IR 800 dye. GFP detection served as a transfection and/or loading control.

[2] = tested on: β-catenin protein levels in L-Wnt3a cells; assay: β-catenin expression by flow cytometry; assay type: cell-based, mouse; settings: 100 nmol/L, 24 hours
Description: (§1) Reporter Assay: Media from L-Wnt3a cells (L cells overexpressing Wnt3a; ATCC CRL-2647) treated with a concentration-series of RXC004, was incubated with the LEADING LIGHT Wnt Reporter Cell Line (Enzo life sciences; ENZ-61002-0001). Luciferase was detected using the ONE-Glo Luciferase Assay System (Promega E6120), data were normalized to DMSO-treated controls and IC50 values determined. Recombinant Wnt3a (Bio-Techne #1324-WN-010) was used at 1 μg/mL. β-catenin expression: L-Wnt3a cells were treated with RXC004 (100 nmol/L) or DMSO (0.1%) for 24 hours. Cellular β-catenin protein levels were quantified by staining with anti-β-catenin (AlexaFluor488, BD 562505) and assessment using an Agilent Novocyte-3000 flow cytometer.

[3] = tested on: functional Wnt production from mouse L-Wnt3a cells; assay: Wnt reporter assay (L-Wnt3a conditioned media on LEADING LIGHT Wnt Reporter Cell Line); assay type: cell-based
Description: as §1

[4] = tested on: HCT116 cells; assay: Wnt-responsive gene expression (qPCR); assay type: cell-based, human
Excerpt: (§2) The expression of nine potential Wnt-responsive genes was screened across cell lines by treatment with RXC004 (10 nmol/L) or DMSO (0.1%) for 3 days. RNA was extracted (Aurum RNA isolation kit, Bio-Rad #372-6820) and gene expression assessed by Taqman qPCR relative to appropriate housekeeping genes on the Bio-Rad CFX real-time system.
(§3) For concentration–response effects on gene expression, Single-Shot Cell Lysis kit (Bio-Rad #172-5080) was used for RNA extraction, data were normalized to DMSO-treated controls, and IC50 values determined. For cell-cycle analysis, the cancer cell line panel was treated with RXC004 (100 nmol/L) or DMSO (0.1%) for 3 days. Cell-cycle profiles were determined by staining with propidium iodide (Thermo Fisher Scientific #P3566) and phospho-Ser10-Histone-H3 (AlexaFluor-647, BioLegend #650806), and quantified using an Agilent Novocyte-3000 flow cytometer. For in vitro growth curve analysis, HPAF-II and SNU-1411 cells were seeded in 96-well plates at 2,000 cells/well and imaged on the IncuCyte (Sartorius) at 10× magnification with 4 fields of view per well. Total cell object count over time was calculated using the Adherent Cell-by-Cell analysis module.

[5] = tested on: WiDR cells; assay: Wnt-responsive gene expression (qPCR); assay type: cell-based, human
Excerpt: as §2, §3

[6] = tested on: cell lines with RNF43 LoF mutations and RSPO3 fusions; assay: Wnt-responsive gene expression (qPCR); assay type: cell-based, human; settings: 10 nmol/L, 3 days
Excerpt: as §2, §3

[7] = tested on: HPAF-II xenograft; assay: In vivo 18FDG-PET biodistribution; design: species or system mouse (NOD-SCID); settings: 5 mg/kg once daily, 7-day dosing
Description: Experiment was performed at Medicines Discovery Catapult. SNU-1411 (1 × 10^7 cells; NOD-SCID mice) or HPAF-II (1 × 10^7 cells; NOD-SCID mice) were implanted subcutaneously and treatment with RXC004 (5 mg/kg once daily) or vehicle commenced when tumors reached approximately 200 mm^3. Mice were imaged prior to dosing, day 3 and day 7 after dosing. A 10 MBq injection of ^18FDG (PETNET), with a 45-minute washout was followed by a 20-minute PET scan using a Siemens Inveon PET scanner. Tissues removed on day 7 for biodistribution analysis were assessed using a PerkinElmer Wallac Wizard Gamma counter.

[8] = tested on: B16F10 tumors; assay: B16F10/C57BL/6 syngeneic model; assay type: in vivo, mouse (C57BL/6)
Description: B16F10/C57BL/6 syngeneic model was performed at Axis Bioservices. Mouse B16F10 cells (2 × 10^5) were subcutaneously implanted in flanks of the immunocompetent male C57BL/6 mice. Treatment was initiated at day 3, once tumors were palpable with RXC004 being dosed orally as indicated. Anti-programmed cell death protein-1 (PD-1; RMP1-14, BioXcell) or isotype control was dosed at 100 μg per dose intraperitoneal, twice weekly. Anti-CTLA-4 antibody (BioXCell BP0131) or isotype control was dosed intraperitoneally every 3 days at 100 μg per dose. Separate experiments were performed for tumor volume and flow cytometry analysis. Tumor volume was assessed in each animal and/or group until prespecified termination conditions and/or study endpoint were reached. For flow cytometry, tumors were resected at day 19, 2 hours after final dose, weighed and digested into a single-cell suspension using collagenase (Liberase, Roche) and DNAase and passed through a strainer prior to flow cytometry analysis on FACS Canto II apparatus using Flow JO software. Single and fluorescence minus one stains were used for compensation setup and gating controls respectively. A myeloid analysis panel included Zombie viability dye (BioLegend #423106), CD11b (BioLegend #101228), CD45, Ly6C, and Ly6G (BD Biosciences #563891, #562727, #551460). Myeloid myeloid-derived suppressor cells (MDSC) were gated as CD45^+CD11b^+ Ly6G-Ly6C^high and polymorphonuclear MDSCs were gated as CD45^+CD11b^+ Ly6G^+Ly6C^med ([21]). For gene expression analysis, tumors were snap frozen, total RNA was extracted and mRNA expression levels for various genes analyzed using the Nanostring nCounter Mouse PanCancer IO360 Codeset.

T1 sequence (Q9H237 whole entry): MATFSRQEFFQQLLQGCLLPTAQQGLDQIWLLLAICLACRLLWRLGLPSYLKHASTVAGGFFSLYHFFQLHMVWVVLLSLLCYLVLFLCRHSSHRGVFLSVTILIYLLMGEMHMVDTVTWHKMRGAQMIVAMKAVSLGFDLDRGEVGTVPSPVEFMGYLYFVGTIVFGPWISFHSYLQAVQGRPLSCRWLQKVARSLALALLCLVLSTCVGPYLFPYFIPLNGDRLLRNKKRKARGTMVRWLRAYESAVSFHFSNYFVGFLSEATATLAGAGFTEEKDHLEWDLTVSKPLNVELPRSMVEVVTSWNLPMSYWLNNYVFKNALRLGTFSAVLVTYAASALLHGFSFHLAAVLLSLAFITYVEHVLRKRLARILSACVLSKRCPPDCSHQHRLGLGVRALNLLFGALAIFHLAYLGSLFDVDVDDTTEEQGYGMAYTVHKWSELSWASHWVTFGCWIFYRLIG

Cc1c(-c2ccnc(C(F)(F)F)c2)ncn1CC(=O)Nc1ccc(-c2cnccn2)cn1 [RXC004, 2-[5-methyl-4-[2-(trifluoromethyl)-4-pyridyl]imidazol-1-yl]-N-(5-pyrazin-2-yl-2-pyridyl)acetamide]
palmitoylation of Wnt [1]: inhibited palmitoylation of Wnt | β-catenin protein levels [2]: reduces β-catenin protein levels in L-Wnt3a cells back to baseline | IC50 ([3]; Mus musculus, L Wnt-3A, L-Wnt3a cells treated with concentration-series, read-out: IC50, β-catenin responsive luciferase reporter activated by conditioned media): 0.064 nM | effect on downstream Wnt signaling (rescue by recombinant Wnt3a) ([3]; recombinant Wnt3a 1 μg/mL): no effect on downstream Wnt signaling | Wnt pathway target expression ([4]; HCT116, 10 nmol/L, 3 days): Minimal effects | IC50 ([4]; Homo sapiens, HCT-116, HCT116, read-out: IC50, c-Myc mRNA expression): > 10 µM | IC50 ([5]; Homo sapiens, WiDr, read-out: IC50, c-Myc mRNA expression): > 10 µM | Wnt pathway target expression ([5]; WiDR, 10 nmol/L, 3 days): Minimal effects | mRNA expression of Wnt pathway targets Axin2, RNF43, c-Myc, CD44, MMP7 [6]: downregulated mRNA expression of Wnt pathway targets | mucin mRNA [6]: marked increase in mucin mRNA | 18FDG tumor:blood ratios [7]: significant decrease in tumor:blood ratios | survival hazard ratio ([8]; 5 mg/kg QD versus vehicle, P <0.0001, Log-rank test): 0.27 | survival ([8]; 5 mg/kg once daily): significantly increased survival | tumor expression of CXCL9 ([8]; 5 mg/kg once daily): increased tumor expression of the chemokine CXCL9 | tumor-associated CD45+ immune cells (Nanostring) ([8]; 5 mg/kg once daily): significantly increased the overall tumor-associated CD45^+ immune cells | circulating MDSC ([8]; 5 mg/kg once daily, day 19): concomitant increase in circulating MDSC | tumor-associated MDSCs ([8]; 5 mg/kg once daily, day 19): significantly reduced tumor-associated MDSCs | tumor volume / tumor growth ([8]; RXC004 5 mg/kg once daily, anti-PD-1 100 μg per dose twice a week): significant tumor growth inhibition
